Measured values: patent US20080009418A1, “Selective Inhibitors” (Alchemia LTD., priority 2004, published 2008)

How the values were obtained:
Human Melanocortin (MC4) = biological target: T1, Human Melanocortin (MC4) (Homo sapiens, UniProt P32245); assay: Radioligand binding, human melanocortin MC4 membranes, FlashPlate, [125I]-NDP-αMSH; conditions: compound at 10 μM; [125I]-NDP-αMSH
T1 construct: purchased Perkin Elmer Biosignal
How it was run: (§1)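 Cloned human receptor membranes were coated onto FlashPlate wells and incubated with radioligand and compound (added from a 0.5 mM DMSO daughter plate) for 1 hour at room temperature in the dark. Scintillation counting gave percent inhibition, with DMSO defining total and reference ligand defining non-specific binding.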

Human melanocortin (MC5) = biological target: T2, Human melanocortin (MC5) (Homo sapiens, UniProt P33032); assay: Radioligand binding, human melanocortin MC5 membranes, FlashPlate, [125I]-NDP-αMSH; conditions: compound at 10 μM, [125I]-NDP-αMSH
T2 construct: purchased Perkin Elmer Biosignal
How it was run: as §1

Human δ-opioid (DOP) = biological target: T3, Human δ-opioid (DOP) (Homo sapiens, UniProt P41143); assay: Radioligand binding, human δ-opioid (DOP) membranes, FlashPlate, [3H]-Bremazocine; conditions: compound at 10 μM; [3H]-Bremazocine
T3 construct: purchased Perkin Elmer Biosignal
How it was run: as §1

Mouse urotensin (mUR2) = biological target: T4, Mouse urotensin (mUR2) (Mus musculus, UniProt Q8VIH9); assay: Radioligand binding, mouse urotensin mUR2 membranes, FlashPlate, [125I]-Urotensin II; conditions: compound at 10 μM; [125I]-Urotensin II
T4 construct: purchased Perkin Elmer Biosignal
T4 sequence (Q8VIH9 1-385): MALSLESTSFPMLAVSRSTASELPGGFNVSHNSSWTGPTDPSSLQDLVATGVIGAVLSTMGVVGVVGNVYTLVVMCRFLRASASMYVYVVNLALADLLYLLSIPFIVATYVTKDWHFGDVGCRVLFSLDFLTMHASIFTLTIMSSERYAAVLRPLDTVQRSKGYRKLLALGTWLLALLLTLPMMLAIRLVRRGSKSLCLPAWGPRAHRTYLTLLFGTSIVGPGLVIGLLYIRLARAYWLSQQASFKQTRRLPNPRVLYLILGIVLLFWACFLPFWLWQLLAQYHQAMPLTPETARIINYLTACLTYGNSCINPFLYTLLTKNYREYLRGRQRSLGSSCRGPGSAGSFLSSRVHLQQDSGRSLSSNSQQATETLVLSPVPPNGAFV
How it was run: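 Cloned mouse urotensin (mUR2) receptor membranes from Perkin Elmer Biosignal were immobilized in FlashPlate microplates using a proprietary coating. Each well got 19.5 μl buffer, then 0.5 μl of DMSO, reference ligand, or compound. Adding 5 μl of [125I]-Urotensin II, diluted to 5× final concentration in binding buffer, started binding. Plates were sealed with TopSeal-A and incubated 1 hour at room temperature in the dark. Wells were counted for 30 seconds each on a TopCount after a 60-second delay, and percentage inhibition was calculated.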

[1] = biological target: T5, Human neuropeptide Y (NPY-Y1) (Homo sapiens, UniProt P25929); assay: Radioligand binding, human neuropeptide Y NPY-Y1 membranes, FlashPlate, [125I]-PYY; conditions: compound at 10 μM; [125I]-PYY
T5 construct: purchased Perkin Elmer Biosignal
T5 sequence (P25929 1-384): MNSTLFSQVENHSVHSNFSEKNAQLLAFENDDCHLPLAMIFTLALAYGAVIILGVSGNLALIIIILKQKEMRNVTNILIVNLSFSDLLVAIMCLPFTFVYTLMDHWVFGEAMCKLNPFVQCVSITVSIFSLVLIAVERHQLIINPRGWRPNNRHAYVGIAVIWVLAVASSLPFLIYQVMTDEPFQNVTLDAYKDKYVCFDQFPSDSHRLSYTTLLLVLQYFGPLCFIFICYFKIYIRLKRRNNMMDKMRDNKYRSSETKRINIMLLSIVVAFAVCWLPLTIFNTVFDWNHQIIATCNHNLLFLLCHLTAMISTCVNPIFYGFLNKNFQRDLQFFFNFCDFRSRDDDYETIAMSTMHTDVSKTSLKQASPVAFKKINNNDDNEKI
How it was run: as §1

Human neurokinin (NK1) = biological target: T6, Human neurokinin (NK1) (Homo sapiens, UniProt P25103); assay: Radioligand binding, human neurokinin NK1 membranes, filtration, [125I]-Substance P; conditions: compound at 10 μM; [125I]-Substance P
T6 construct: purchased Perkin Elmer Biosignal
How it was run: (§2)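 Filtration binding on cloned human receptor membranes (1 Unit/well), [125I]-Substance P for NK1 and [3H]-Diprenorphine for KOP, 1 h at room temperature. Filters PEI-presoaked, washed with cold 50 mM Tris-HCl pH 7.4, counted by scintillation; percent inhibition calculated, reference ligand defining non-specific binding.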

[2] = biological target: T7, Human melanin-concentrating hormone (MCH1) (Homo sapiens, UniProt Q99705); assay: Radioligand binding, human melanin-concentrating hormone MCH1 membranes, FlashPlate, [125I]-S36057; conditions: compound at 10 μM; [125I]-S36057
T7 construct: purchased Perkin Elmer Biosignal
How it was run: as §1

Human μ-opioid (MOP) = biological target: T8, Human μ-opioid (MOP) (Homo sapiens, UniProt P35372); assay: Radioligand binding, human μ-opioid (MOP) membranes, FlashPlate, [3H]-Naloxone; conditions: compound at 10 μM; [3H]-Naloxone
T8 construct: purchased Perkin Elmer Biosignal
How it was run: as §1

Human Melanocortin (MC3) = biological target: T9, Human Melanocortin (MC3) (Homo sapiens, UniProt P41968); assay: Radioligand binding, human melanocortin MC3 membranes, FlashPlate, [125I]-NDP-αMSH; conditions: compound at 10 μM; [125I]-NDP-αMSH
T9 construct: purchased Perkin Elmer Biosignal
How it was run: as §1

Human opioid (ORL1) = biological target: T10, Human opioid (ORL1) (Homo sapiens, UniProt P41146); assay: Radioligand binding, human opioid ORL1 membranes, FlashPlate, [125I]-Nociceptin; conditions: compound at 10 μM; [125I]-Nociceptin
T10 construct: purchased Perkin Elmer Biosignal
How it was run: as §1

Human κ-Opioid (KOP) = biological target: T11, Human κ-Opioid (KOP) (Homo sapiens, UniProt P41145); assay: Radioligand binding, human κ-opioid (KOP) membranes, filtration, [3H]-Diprenorphine; conditions: compound at 10 μM; [3H]-Diprenorphine
T11 construct: purchased Perkin Elmer Biosignal
How it was run: as §2

T7 sequence (Q99705 whole entry): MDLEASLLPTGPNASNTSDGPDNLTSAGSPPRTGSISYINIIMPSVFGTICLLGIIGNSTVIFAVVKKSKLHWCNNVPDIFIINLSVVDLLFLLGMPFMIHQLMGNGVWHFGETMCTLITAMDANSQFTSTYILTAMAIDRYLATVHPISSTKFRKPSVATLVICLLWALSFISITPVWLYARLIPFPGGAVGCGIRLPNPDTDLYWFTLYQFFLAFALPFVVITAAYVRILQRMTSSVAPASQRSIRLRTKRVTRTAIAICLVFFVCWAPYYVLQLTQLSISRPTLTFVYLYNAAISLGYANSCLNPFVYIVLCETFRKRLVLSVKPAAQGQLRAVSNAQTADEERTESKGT
T2 sequence (P33032 whole entry): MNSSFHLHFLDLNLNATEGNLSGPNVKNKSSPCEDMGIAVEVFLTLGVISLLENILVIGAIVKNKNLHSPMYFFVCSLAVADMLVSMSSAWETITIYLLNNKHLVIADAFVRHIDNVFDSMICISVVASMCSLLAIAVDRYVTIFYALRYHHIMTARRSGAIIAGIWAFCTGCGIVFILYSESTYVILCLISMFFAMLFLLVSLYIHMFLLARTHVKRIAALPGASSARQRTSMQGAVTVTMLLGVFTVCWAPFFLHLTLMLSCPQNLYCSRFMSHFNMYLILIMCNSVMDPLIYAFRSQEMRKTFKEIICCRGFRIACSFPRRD
T6 sequence (P25103 whole entry): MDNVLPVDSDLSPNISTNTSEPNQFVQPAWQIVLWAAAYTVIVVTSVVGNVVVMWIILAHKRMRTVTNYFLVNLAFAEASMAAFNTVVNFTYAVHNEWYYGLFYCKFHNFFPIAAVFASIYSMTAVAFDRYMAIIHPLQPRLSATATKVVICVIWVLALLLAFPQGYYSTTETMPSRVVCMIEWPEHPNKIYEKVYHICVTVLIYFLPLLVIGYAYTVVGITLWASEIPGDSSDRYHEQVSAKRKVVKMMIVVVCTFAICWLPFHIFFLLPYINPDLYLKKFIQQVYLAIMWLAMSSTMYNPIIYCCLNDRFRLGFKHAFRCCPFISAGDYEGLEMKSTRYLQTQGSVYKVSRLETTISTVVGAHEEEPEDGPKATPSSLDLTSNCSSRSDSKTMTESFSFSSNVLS
T10 sequence (P41146 whole entry): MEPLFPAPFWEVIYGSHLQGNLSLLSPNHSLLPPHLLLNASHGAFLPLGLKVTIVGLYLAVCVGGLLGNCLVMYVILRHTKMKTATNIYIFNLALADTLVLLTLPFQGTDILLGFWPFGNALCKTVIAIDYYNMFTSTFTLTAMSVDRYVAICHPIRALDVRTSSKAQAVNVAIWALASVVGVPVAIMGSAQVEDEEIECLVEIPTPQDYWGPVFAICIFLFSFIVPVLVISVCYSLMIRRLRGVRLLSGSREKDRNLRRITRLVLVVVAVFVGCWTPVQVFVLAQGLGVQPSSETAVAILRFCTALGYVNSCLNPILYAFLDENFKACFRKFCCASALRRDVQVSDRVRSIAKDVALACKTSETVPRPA
T8 sequence (P35372 whole entry): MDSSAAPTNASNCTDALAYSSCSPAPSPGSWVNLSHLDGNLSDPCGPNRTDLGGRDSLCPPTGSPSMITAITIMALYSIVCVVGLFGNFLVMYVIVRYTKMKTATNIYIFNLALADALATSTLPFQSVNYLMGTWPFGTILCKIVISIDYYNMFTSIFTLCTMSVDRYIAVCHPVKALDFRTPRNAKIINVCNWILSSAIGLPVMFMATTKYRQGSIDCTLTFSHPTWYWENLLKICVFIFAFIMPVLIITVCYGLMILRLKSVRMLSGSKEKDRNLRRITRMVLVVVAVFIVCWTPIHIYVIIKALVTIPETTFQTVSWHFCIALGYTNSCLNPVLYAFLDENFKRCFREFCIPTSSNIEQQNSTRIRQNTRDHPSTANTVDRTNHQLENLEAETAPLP
T9 sequence (P41968 whole entry): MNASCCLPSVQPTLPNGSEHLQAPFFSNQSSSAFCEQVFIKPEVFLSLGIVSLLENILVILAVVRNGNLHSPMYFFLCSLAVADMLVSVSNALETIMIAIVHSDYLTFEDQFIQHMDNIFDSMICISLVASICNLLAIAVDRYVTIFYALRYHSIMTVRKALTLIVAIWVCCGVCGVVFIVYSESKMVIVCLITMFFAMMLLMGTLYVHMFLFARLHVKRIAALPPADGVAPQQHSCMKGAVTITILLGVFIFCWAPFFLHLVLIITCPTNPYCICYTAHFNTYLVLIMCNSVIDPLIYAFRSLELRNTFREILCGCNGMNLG
T3 sequence (P41143 whole entry): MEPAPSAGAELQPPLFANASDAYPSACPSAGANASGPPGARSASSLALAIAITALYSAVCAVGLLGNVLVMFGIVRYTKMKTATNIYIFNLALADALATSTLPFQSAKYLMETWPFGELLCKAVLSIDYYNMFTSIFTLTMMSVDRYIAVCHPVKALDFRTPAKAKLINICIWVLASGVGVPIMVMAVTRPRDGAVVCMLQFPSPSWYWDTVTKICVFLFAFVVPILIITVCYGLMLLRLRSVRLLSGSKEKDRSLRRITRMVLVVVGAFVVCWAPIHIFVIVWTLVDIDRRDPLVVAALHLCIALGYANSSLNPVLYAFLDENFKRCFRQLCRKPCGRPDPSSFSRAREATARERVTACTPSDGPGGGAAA
T11 sequence (P41145 whole entry): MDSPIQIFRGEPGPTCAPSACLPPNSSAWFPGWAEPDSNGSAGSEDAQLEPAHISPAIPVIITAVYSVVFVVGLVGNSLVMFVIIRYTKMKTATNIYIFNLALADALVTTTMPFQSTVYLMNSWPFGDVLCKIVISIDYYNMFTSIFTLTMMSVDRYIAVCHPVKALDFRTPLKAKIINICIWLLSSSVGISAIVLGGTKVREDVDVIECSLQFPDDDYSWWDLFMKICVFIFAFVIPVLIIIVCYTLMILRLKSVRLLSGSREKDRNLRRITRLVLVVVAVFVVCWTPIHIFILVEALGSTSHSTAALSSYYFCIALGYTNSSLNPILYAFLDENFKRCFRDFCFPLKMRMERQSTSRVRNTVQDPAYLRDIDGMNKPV
T1 sequence (P32245 whole entry): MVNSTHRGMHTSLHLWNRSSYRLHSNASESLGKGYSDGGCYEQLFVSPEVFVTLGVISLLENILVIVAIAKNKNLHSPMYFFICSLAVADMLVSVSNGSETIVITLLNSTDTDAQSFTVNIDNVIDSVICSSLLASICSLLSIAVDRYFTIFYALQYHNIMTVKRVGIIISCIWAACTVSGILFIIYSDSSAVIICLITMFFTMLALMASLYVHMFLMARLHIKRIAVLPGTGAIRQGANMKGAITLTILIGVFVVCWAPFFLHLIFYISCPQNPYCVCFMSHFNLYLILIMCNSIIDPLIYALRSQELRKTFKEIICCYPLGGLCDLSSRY

Structure (SMILES)	A4: inhibition of radioligand binding, human melanocortin (MC4) (Human Melanocortin (MC4))	A5: inhibition of radioligand binding, human melanocortin (MC5) (Human melanocortin (MC5))	A1: inhibition of radioligand binding, human δ-opioid (DOP) (Human δ-opioid (DOP))	A11: inhibition of radioligand binding, mouse urotensin (mUR2) (Mouse urotensin (mUR2))	A9: inhibition of radioligand binding, human neuropeptide Y (NPY-Y1) [1]	A8: inhibition of radioligand binding, human neurokinin (NK1) (Human neurokinin (NK1))	A6: inhibition of radioligand binding, human melanin-concentrating hormone (MCH1) [2]	A7: inhibition of radioligand binding, human μ-opioid (MOP) (Human μ-opioid (MOP))	A3: inhibition of radioligand binding, human melanocortin (MC3) (Human Melanocortin (MC3))	A10: inhibition of radioligand binding, human opioid (ORL1) (Human opioid (ORL1))	A2: inhibition of radioligand binding, human κ-opioid (KOP) (Human κ-Opioid (KOP))	A5: inhibition of radioligand binding, human melanocortin (MC5) (Human melanocortin (MC5); 10 µM)
CSC1OC(COCc2ccccc2)C(O)C(OCc2cccc(N)c2)C1NC(=O)Cc1c[nH]c2ccccc12 (stereo not shown) [compound 322]	− (“−” indicates less than 50% inhibition at 10 μM)	− (“−” indicates less than 50% inhibition at 10 μM)	− (“−” indicates less than 50% inhibition at 10 μM)	− (“−” indicates less than 50% inhibition at 10 μM)	− (“−” indicates less than 50% inhibition at 10 μM)	+ (“+” indicates greater than 50% inhibition at 10 μM)	− (“−” indicates less than 50% inhibition at 10 μM)	− (“−” indicates less than 50% inhibition at 10 μM)	− (“−” indicates less than 50% inhibition at 10 μM)	− (“−” indicates less than 50% inhibition at 10 μM)	− (“−” indicates less than 50% inhibition at 10 μM)	
CSC1OC(COCc2ccc(Cl)cc2)C(O)C(OCc2cccc(N)c2)C1NC(=O)c1c[nH]c2ccccc12 (stereo not shown) [compound 323]	− (“−” indicates less than 50% inhibition at 10 μM)	− (“−” indicates less than 50% inhibition at 10 μM)	− (“−” indicates less than 50% inhibition at 10 μM)	− (“−” indicates less than 50% inhibition at 10 μM)	− (“−” indicates less than 50% inhibition at 10 μM)	+ (“+” indicates greater than 50% inhibition at 10 μM)	− (“−” indicates less than 50% inhibition at 10 μM)	− (“−” indicates less than 50% inhibition at 10 μM)	− (“−” indicates less than 50% inhibition at 10 μM)	− (“−” indicates less than 50% inhibition at 10 μM)	− (“−” indicates less than 50% inhibition at 10 μM)	
CSC1OC(COCc2ccccc2)C(O)C(OCc2cccc(N)c2)C1NC(=O)C=Cc1ccccc1 (stereo not shown) [compound 324]	− (“−” indicates less than 50% inhibition at 10 μM)	− (“−” indicates less than 50% inhibition at 10 μM)	− (“−” indicates less than 50% inhibition at 10 μM)	− (“−” indicates less than 50% inhibition at 10 μM)	− (“−” indicates less than 50% inhibition at 10 μM)	+ (“+” indicates greater than 50% inhibition at 10 μM)	− (“−” indicates less than 50% inhibition at 10 μM)	− (“−” indicates less than 50% inhibition at 10 μM)	− (“−” indicates less than 50% inhibition at 10 μM)	− (“−” indicates less than 50% inhibition at 10 μM)	− (“−” indicates less than 50% inhibition at 10 μM)	
CSC1OC(COCc2cccc(N)c2)C(O)C(OCc2ccccc2)C1NC(=O)Cc1ccccc1 (stereo not shown) [compound 325]	− (“−” indicates less than 50% inhibition at 10 μM)		− (“−” indicates less than 50% inhibition at 10 μM)	− (“−” indicates less than 50% inhibition at 10 μM)	− (“−” indicates less than 50% inhibition at 10 μM)	+ (“+” indicates greater than 50% inhibition at 10 μM)	− (“−” indicates less than 50% inhibition at 10 μM)	− (“−” indicates less than 50% inhibition at 10 μM)	− (“−” indicates less than 50% inhibition at 10 μM)	− (“−” indicates less than 50% inhibition at 10 μM)	− (“−” indicates less than 50% inhibition at 10 μM)	+ (“+” indicates greater than 50% inhibition at 10 μM)
CSC1OC(COCc2cccc(N)c2)C(O)C(OCc2ccccc2)C1NC(=O)c1c[nH]c2ccccc12 (stereo not shown) [compound 326]	− (“−” indicates less than 50% inhibition at 10 μM)	− (“−” indicates less than 50% inhibition at 10 μM)	− (“−” indicates less than 50% inhibition at 10 μM)	− (“−” indicates less than 50% inhibition at 10 μM)	− (“−” indicates less than 50% inhibition at 10 μM)	+ (“+” indicates greater than 50% inhibition at 10 μM)	− (“−” indicates less than 50% inhibition at 10 μM)	− (“−” indicates less than 50% inhibition at 10 μM)	− (“−” indicates less than 50% inhibition at 10 μM)	− (“−” indicates less than 50% inhibition at 10 μM)	− (“−” indicates less than 50% inhibition at 10 μM)	
